# Data from PubChem BioAssay AID256 (DTP/NCI, 2004).
# Values joined by “and” are separate entries in the source; they are usually repeats but may differ in a detail not shown here. Identical values can stand only once. Toxic doses and inconclusive results are not listed.
# Tested on: CD2F1 mice, L1210 leukemia ip, survival T/C
# Test: NCI In Vivo Anticancer Drug Screen. Data for tumor model L1210 Leukemia (intraperitoneal) in CD2F1 (CDF1) mice
# Conditions: higher = longer survival
# Procedure, shortened: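 Ratio T/C, where T is the treated-group value and C the vehicle-dosed control value, from mice implanted with a transplantable tumor.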
# [1] = endpoint: mean survival time, dose: 100.0 mg/kg/injection, schedule: Q01DX001 (ip), vehicle: saline
# [2] = endpoint: mean survival time, dose: 200.0 mg/kg/injection, schedule: Q01DX001 (ip), vehicle: saline
# [3] = endpoint: mean survival time, dose: 400.0 mg/kg/injection, schedule: Q01DX001 (ip), vehicle: saline
# [4] = endpoint: mean survival time, dose: 100.0 mg/kg/injection, schedule: Q01DX001 (ip), vehicle: saline with Tween-80
# [5] = endpoint: mean survival time, dose: 200.0 mg/kg/injection, schedule: Q01DX001 (ip), vehicle: saline with Tween-80
# [6] = endpoint: mean survival time, dose: 400.0 mg/kg/injection, schedule: Q01DX001 (ip), vehicle: saline with Tween-80
# [7] = endpoint: mean survival time, dose: 50.0 mg/kg/injection, schedule: Q01DX001 (ip), vehicle: saline
# [8] = endpoint: mean survival time, dose: 100.0 mg/kg/injection, schedule: Q04DX003 (ip), vehicle: saline with Tween-80
# [9] = endpoint: mean survival time, dose: 200.0 mg/kg/injection, schedule: Q04DX003 (ip), vehicle: saline with Tween-80
# [10] = endpoint: mean survival time, dose: 400.0 mg/kg/injection, schedule: Q04DX003 (ip), vehicle: saline with Tween-80
# [11] = endpoint: mean survival time, dose: 100.0 mg/kg/injection, schedule: Q01DX009 (ip), vehicle: saline with Tween-80
# [12] = endpoint: mean survival time, dose: 200.0 mg/kg/injection, schedule: Q01DX009 (ip), vehicle: saline with Tween-80
# [13] = endpoint: mean survival time, dose: 400.0 mg/kg/injection, schedule: Q01DX009 (ip), vehicle: saline with Tween-80
# [14] = endpoint: mean survival time, dose: 100.0 mg/kg/injection, schedule: Q04DX002 (ip), vehicle: saline with Tween-80
smiles,measurement,setting,value
CC(C)NC(=O)CCCN(C(=O)OCc1ccccc1)N(C)C(=O)OCc1ccccc1,T/C,"endpoint: mean survival time, dose: 25.0 mg/kg/injection, schedule: Q04DX003 (ip), vehicle: Klucel (hydroxypropylcellulose) (HPC)",94 % of control
same,T/C,"endpoint: mean survival time, dose: 50.0 mg/kg/injection, schedule: Q04DX003 (ip), vehicle: Klucel (hydroxypropylcellulose) (HPC)",91 % of control
same,T/C,"endpoint: mean survival time, dose: 100.0 mg/kg/injection, schedule: Q04DX003 (ip), vehicle: Klucel (hydroxypropylcellulose) (HPC)",103 % of control
same,T/C,"endpoint: mean survival time, dose: 200.0 mg/kg/injection, schedule: Q04DX003 (ip), vehicle: Klucel (hydroxypropylcellulose) (HPC)",91 % of control
same,T/C,"endpoint: mean survival time, dose: 400.0 mg/kg/injection, schedule: Q04DX003 (ip), vehicle: Klucel (hydroxypropylcellulose) (HPC)",95 % of control
CCCCC(C)(C(=O)OCC)C(=O)OCC,T/C,"endpoint: mean survival time, dose: 12.5 mg/kg/injection, schedule: Q01DX009 (ip), vehicle: Klucel (hydroxypropylcellulose) (HPC)",98 % of control
same,T/C,"endpoint: mean survival time, dose: 25.0 mg/kg/injection, schedule: Q01DX009 (ip), vehicle: Klucel (hydroxypropylcellulose) (HPC)",98 % of control
same,T/C,"endpoint: mean survival time, dose: 50.0 mg/kg/injection, schedule: Q01DX009 (ip), vehicle: Klucel (hydroxypropylcellulose) (HPC)",108 % of control
same,T/C,"endpoint: mean survival time, dose: 100.0 mg/kg/injection, schedule: Q01DX009 (ip), vehicle: Klucel (hydroxypropylcellulose) (HPC)",98 % of control
same,T/C,"endpoint: mean survival time, dose: 200.0 mg/kg/injection, schedule: Q01DX009 (ip), vehicle: Klucel (hydroxypropylcellulose) (HPC)",98 % of control
same,T/C,"endpoint: mean survival time, dose: 400.0 mg/kg/injection, schedule: Q01DX009 (ip), vehicle: Klucel (hydroxypropylcellulose) (HPC)",106 % of control
Nc1ccc(C(=O)Nc2ccc(S(=O)(=O)F)cc2)cc1,T/C,[1],100 % of control
same,T/C,[2],96 % of control
same,T/C,[3],102 % of control
CCOc1ccc(-n2c(=O)c(N=Nc3ccccc3)c(O)n(-c3ccccc3OC)c2=S)cc1,T/C,[4],102 % of control
same,T/C,[5],89 % of control
same,T/C,[6],90 % of control
CCCCCCCCC(=O)c1c(OC)oc(/C=N/Nc2ccccc2)cc1=O,T/C,"endpoint: mean survival time, dose: 4.7 mg/kg/injection, schedule: Q01DX009 (ip), vehicle: Klucel (hydroxypropylcellulose) (HPC)",103 % of control
same,T/C,"endpoint: mean survival time, dose: 9.38 mg/kg/injection, schedule: Q01DX009 (ip), vehicle: Klucel (hydroxypropylcellulose) (HPC)",103 % of control
same,T/C,"endpoint: mean survival time, dose: 18.75 mg/kg/injection, schedule: Q01DX009 (ip), vehicle: Klucel (hydroxypropylcellulose) (HPC)",103 % of control
same,T/C,"endpoint: mean survival time, dose: 37.5 mg/kg/injection, schedule: Q01DX009 (ip), vehicle: Klucel (hydroxypropylcellulose) (HPC)",98 % of control
same,T/C,"endpoint: mean survival time, dose: 75.0 mg/kg/injection, schedule: Q01DX009 (ip), vehicle: Klucel (hydroxypropylcellulose) (HPC)",92 % of control
CC(CN1CC(=O)NC(=O)C1)N1CC(=O)NC(=O)C1 (centres undefined),T/C,"endpoint: mean survival time, dose: 4.0 mg/kg/injection, schedule: Q01DX009 (ip), vehicle: saline",112 % of control
same,T/C,"endpoint: mean survival time, dose: 8.0 mg/kg/injection, schedule: Q01DX009 (ip), vehicle: saline",123 % of control
same,T/C,"endpoint: mean survival time, dose: 32.0 mg/kg/injection, schedule: Q01DX009 (ip), vehicle: saline",158 % of control
same,T/C,"endpoint: mean survival time, dose: 32.0 mg/kg/injection, schedule: Q04DX003 (ip), vehicle: saline",117 % of control
same,T/C,[7],96 % of control
same,T/C,"endpoint: mean survival time, dose: 64.0 mg/kg/injection, schedule: Q01DX009 (ip), vehicle: saline",124 % of control
same,T/C,"endpoint: mean survival time, dose: 128.0 mg/kg/injection, schedule: Q01DX009 (ip), vehicle: saline",104 % of control
same,T/C,"endpoint: mean survival time, dose: 256.0 mg/kg/injection, schedule: Q04DX003 (ip), vehicle: saline",196 % of control
same,T/C,"endpoint: mean survival time, dose: 512.0 mg/kg/injection, schedule: Q04DX003 (ip), vehicle: saline",251 % of control
same,T/C,"endpoint: median survival time, dose: 180.0 mg/kg/injection, schedule: Q04DX003 (ip), vehicle: Klucel (hydroxypropylcellulose) (HPC)",169 % of control and 170 % of control
same,T/C,"endpoint: median survival time, dose: 300.0 mg/kg/injection, schedule: Q04DX003 (ip), vehicle: Klucel (hydroxypropylcellulose) (HPC)",236 % of control
same,T/C,"endpoint: median survival time, dose: 500.0 mg/kg/injection, schedule: Q04DX003 (ip), vehicle: Klucel (hydroxypropylcellulose) (HPC)",122 % of control
CC1(C)OC2COC(c3cc(C(N)=O)n[nH]3)C2O1 (centres undefined),T/C,[4],106 % of control
same,T/C,[5],101 % of control
same,T/C,[6],105 % of control
CCCCCC(CC)OC(=O)Nc1cccc2ccccc12 (centres undefined),T/C,[8],89 % of control
same,T/C,[9],101 % of control
same,T/C,[10],100 % of control
COc1cccc(C#Cc2ccccc2NC(C)=O)c1,T/C,[11],91 % of control
same,T/C,[12],86 % of control
same,T/C,[13],94 % of control
O=C1NC(=NC2CCCCC2)C2(CCN(CC3COc4ccccc4O3)CC2)N1c1ccccc1 (centres undefined),T/C,[4],91 % of control
same,T/C,[5],95 % of control
same,T/C,[6],101 % of control
CCc1cc(/C=C2\C(=O)C=Cc3ccccc32)c(O)s1,T/C,"endpoint: mean survival time, dose: 25.0 mg/kg/injection, schedule: Q04DX002 (ip), vehicle: saline with Tween-80",101 % of control
same,T/C,"endpoint: mean survival time, dose: 50.0 mg/kg/injection, schedule: Q04DX002 (ip), vehicle: saline with Tween-80",96 % of control
same,T/C,[14],96 % of control
CC(=O)Oc1cc2c(=O)oc3cc(OC(C)=O)c(=O)oc3c2c(OC(C)=O)c1OC(C)=O,T/C,[1],98 % of control
same,T/C,[2],101 % of control
same,T/C,[3],110 % of control
CC1=NN(c2ccccc2)C(=O)C1N=Nc1ccc([As](=O)(O)O)c(O)c1 (centres undefined),T/C,[11],103 % of control
same,T/C,[8],106 % of control
same,T/C,[12],97 % of control
same,T/C,[9],100 % of control
same,T/C,[10],101 % of control
N#CSC/C(Br)=C/Br,T/C,"endpoint: mean survival time, dose: 6.25 mg/kg/injection, schedule: Q04DX003 (ip), vehicle: saline with Tween-80",97 % of control
same,T/C,"endpoint: mean survival time, dose: 12.5 mg/kg/injection, schedule: Q04DX003 (ip), vehicle: saline with Tween-80",103 % of control
same,T/C,"endpoint: mean survival time, dose: 25.0 mg/kg/injection, schedule: Q04DX003 (ip), vehicle: saline with Tween-80",92 % of control
COC(=O)Nc1cccc(OS(=O)(=O)N(C)C)c1,T/C,[8],103 % of control
NC(=S)Nc1ccc(C23CCC(CC2)CC3)cc1,T/C,"endpoint: mean survival time, dose: 50.0 mg/kg/injection, schedule: Q01DX009 (ip), vehicle: saline with Tween-80",101 % of control
same,T/C,[11],101 % of control
same,T/C,[12],109 % of control
O=c1cc(-c2ccccc2)nc(N[N+](=O)[O-])[nH]1,T/C,[8],100 % of control
same,T/C,[9],94 % of control
Cc1cc(=O)c(C#N)c(-c2ccccc2)[nH]1,T/C,[14],96 % of control
same,T/C,"endpoint: mean survival time, dose: 200.0 mg/kg/injection, schedule: Q04DX002 (ip), vehicle: saline with Tween-80",100 % of control
same,T/C,"endpoint: mean survival time, dose: 400.0 mg/kg/injection, schedule: Q04DX002 (ip), vehicle: saline with Tween-80",87 % of control
COC(=O)C1=C(NC(=O)Nc2ccc(OC)cc2)OC(C)(C)C1c1ccc(Cl)cc1 (centres undefined),T/C,[11],93 % of control
same,T/C,[8],92 % of control
same,T/C,[12],93 % of control
same,T/C,[9],87 % of control
same,T/C,[13],94 % of control
same,T/C,[10],92 % of control
O=C1C2C(c3ccccc3)=C(c3ccccc3)C1[C@@]1(c3ccccc3)C(c3ccccc3)=CC(=O)[C@@H]21 (some centres undefined),T/C,[4],87 % of control
same,T/C,[6],89 % of control
CCCCCCCC(=O)Nc1ccccc1CC,T/C,[11],94 % of control
same,T/C,[12],100 % of control
same,T/C,[13],102 % of control
CC(C)C(C(=O)c1ccccc1)C(c1ccccc1)c1ccccc1 (centres undefined),T/C,"endpoint: mean survival time, dose: 100.0 mg/kg/injection, schedule: Q04DX003 (ip), vehicle: other",106 % of control
same,T/C,"endpoint: mean survival time, dose: 200.0 mg/kg/injection, schedule: Q04DX003 (ip), vehicle: other",97 % of control
same,T/C,"endpoint: mean survival time, dose: 400.0 mg/kg/injection, schedule: Q04DX003 (ip), vehicle: other",100 % of control
Cc1cccc(C)c1NC(=O)c1cccc(Cl)c1,T/C,[11],94 % of control
same,T/C,[8],98 % of control
same,T/C,[12],98 % of control
same,T/C,[9],96 % of control
same,T/C,[13],94 % of control
same,T/C,[10],98 % of control
CC(=O)C(c1ccccc1)C(c1ccccc1)P(=O)(c1ccccc1)c1ccccc1 (centres undefined),T/C,[11],87 % of control
same,T/C,[8],97 % of control
same,T/C,[12],90 % of control
same,T/C,[9],94 % of control
same,T/C,[13],96 % of control
same,T/C,[10],87 % of control
CN(N)c1nc(N)c(C#N)c(C#N)c1C#N,T/C,[7],97 % of control
same,T/C,[1],101 % of control
same,T/C,[2],101 % of control
same,T/C,[3],97 % of control
